Calls of active or inactive are those of the source.
Tests used:
[1] = Fluorescence-based cell-based high throughput dose response assay for inhibitors of the interaction of nucleotide-binding oligomerization domain containing 2 (NOD2) and the receptor-interacting serine-threonine kinase 2 (RIPK2).; format: functional; conditions: Homo sapiens
[2] = HEK293 cell cytotoxicity, dose response, cytotoxicity control, plate reader, cherry-picked samples (AID 743446); format: functional, cell-based
[3] = target: T1, Microphthalmia-associated transcription factor (Homo sapiens, UniProt O75030); experiment: TRPM1 promoter luciferase signal decrease, dose response, MITF inhibitor project, cell-based, SK-MEL-5, cherry-picked, set 3 (AID 493073); format: functional
T1 sequence (O75030 whole entry): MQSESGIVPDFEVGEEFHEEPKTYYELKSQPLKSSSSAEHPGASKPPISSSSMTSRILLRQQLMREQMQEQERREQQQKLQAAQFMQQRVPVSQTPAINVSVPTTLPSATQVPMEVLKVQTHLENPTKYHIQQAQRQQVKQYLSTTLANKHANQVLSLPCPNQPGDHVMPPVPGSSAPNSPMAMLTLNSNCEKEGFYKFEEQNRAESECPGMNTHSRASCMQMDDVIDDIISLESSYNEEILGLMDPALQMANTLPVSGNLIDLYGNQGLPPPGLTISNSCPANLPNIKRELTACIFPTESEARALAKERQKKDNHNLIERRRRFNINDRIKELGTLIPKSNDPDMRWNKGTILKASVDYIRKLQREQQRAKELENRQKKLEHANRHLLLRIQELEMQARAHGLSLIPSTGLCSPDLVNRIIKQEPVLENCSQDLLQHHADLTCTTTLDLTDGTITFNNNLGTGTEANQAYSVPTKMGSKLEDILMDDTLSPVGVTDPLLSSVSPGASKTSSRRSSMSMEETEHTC

[4] = LGR2 antagonists, dose response, cell-based, HEK293, CRE-luciferase reporter, cherry pick, set 2 (AID 743343); format: functional;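 note: transfected cells were stimulated with diluted bursicon conditioned medium after compound addition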
[5] = A549 cell cytotoxicity, dose response, cytotoxicity control, plate reader, cherry-pick, antagonist series (AID 743412); format: functional, cell-based
[6] = HepG2 cell cytotoxicity, dose response, cytotoxicity control, plate reader, cherry-pick, antagonist series (AID 743416); format: functional, cell-based
[7] = MC4R antagonists, dose response, counter-screen for LGR2 antagonist project, cell-based, plate reader, cherry pick (AID 743444); format: functional;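 note: transfected HEK 293 cells stimulated with alpha-MSH peptide; potency of inhibitors of the alpha-MSH evoked signal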
[8] = StAR promoter reporter inhibition counter-screen, dose response, counter-screen for LRH-1 inverse agonist project, cell-based, luminescence, luciferase reporter (AID 651969); format: functional
Steroidogenic factor 1 = Steroidogenic factor 1 (Homo sapiens, UniProt Q13285); experiment: Counterscreen for inverse agonists of the liver receptor homolog-1 (LRH-1; NR5A2): Luminescence-based cell-based high throughput dose response assay to identify inverse agonists of the Steroidogenic Factor 1 Nuclear Receptor (SF1; NR5A1).; format: functional
[9] = target: Nuclear receptor subfamily 5 group A member 2 (Homo sapiens, UniProt O00482); format: functional, cell-based;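 note: HEK293T cells transfected with LRH-1 and a StAR promoter luciferase reporter; potency for inhibitors that lower LRH-1 driven reporter light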
[10] = target: T2, Adenosylmethionine-8-amino-7-oxononanoate aminotransferase (Mycobacterium tuberculosis, UniProt P9WQ81); experiment: Mycobacterium tuberculosis BioA enzyme inhibitor Measured in Biochemical System Using Plate Reader - 2163-02_Inhibitor_Dose_CherryPick_Activity.; format: functional, Mycobacterium tuberculosis UT205
T2 sequence (P9WQ81 whole entry): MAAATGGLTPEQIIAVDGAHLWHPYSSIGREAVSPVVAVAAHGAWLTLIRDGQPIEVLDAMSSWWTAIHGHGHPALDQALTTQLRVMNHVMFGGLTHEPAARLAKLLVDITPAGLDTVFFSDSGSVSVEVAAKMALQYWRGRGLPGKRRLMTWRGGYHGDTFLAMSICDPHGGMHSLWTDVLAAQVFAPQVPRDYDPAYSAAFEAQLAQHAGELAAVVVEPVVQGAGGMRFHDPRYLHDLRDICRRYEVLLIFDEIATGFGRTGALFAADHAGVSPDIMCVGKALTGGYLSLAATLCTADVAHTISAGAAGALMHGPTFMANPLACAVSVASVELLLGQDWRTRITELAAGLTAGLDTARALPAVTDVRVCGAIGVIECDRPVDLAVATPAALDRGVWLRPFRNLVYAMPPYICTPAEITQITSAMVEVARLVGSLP

[11] = target: Glucose-6-phosphate 1-dehydrogenase (Homo sapiens, UniProt P11413); experiment: human G6PD enzyme inhibitors, dose response, selectivity assay for P. falciparum G6PD inhibitor project, biochemical, fluorescence (AID 504792); format: functional
INS1 = experiment: beta cell apoptosis inhibitors, cytokine rescue, dose response, luminescence, retest (AID 449756); format: functional, cell-based; conditions: Rattus norvegicus;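 note: cell death triggered by IL-1 beta plus TNF-alpha plus IFN-gamma mixture; protective hits raise ATP signal compared with cytokine alone wells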
[12] = growth suppression of PTEN-null colon cells, dose response, cell-based, HCT116 PTEN knockout (AID 1047); format: functional;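 note: HCT116 colon tumor cells with PTEN knocked out; cells exposed to compound for 60 hours before readout; potency for loss of cell viability measured by luminescence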
[13] = growth suppression of beta-catenin-knockout colon cells, dose response, cell-based, HCT116, human colon tumor (AID 1045); format: functional;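 note: HCT116 colon tumor cells with beta catenin knocked out; cells exposed to compound for 60 hours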
[14] = target: Photoreceptor-specific nuclear receptor (Homo sapiens, UniProt Q9Y5X4); format: functional, cell-based;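 note: CHO-S cells with Gal4-NCOR and VP16-NR2E3 two-hybrid luciferase reporter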
[15] = Luminescence Cell-Based Dose Retest to Confirm Inhibitors of Cancer Stem Cells. [Related pubchem assays (depositor defined):AID2717, AID2721]; format: functional; conditions: Homo sapiens
[16] = target: T3, Carboxy-terminal domain RNA polymerase II polypeptide A small phosphatase 1 (Homo sapiens, UniProt Q9GZU7); experiment: inhibitors of CTDSP1, concentration-response testing, biochemical assay, absorbance-based, actives from ultra-high-throughput screening (AID 540297); format: functional
T3 sequence (Q9GZU7 whole entry): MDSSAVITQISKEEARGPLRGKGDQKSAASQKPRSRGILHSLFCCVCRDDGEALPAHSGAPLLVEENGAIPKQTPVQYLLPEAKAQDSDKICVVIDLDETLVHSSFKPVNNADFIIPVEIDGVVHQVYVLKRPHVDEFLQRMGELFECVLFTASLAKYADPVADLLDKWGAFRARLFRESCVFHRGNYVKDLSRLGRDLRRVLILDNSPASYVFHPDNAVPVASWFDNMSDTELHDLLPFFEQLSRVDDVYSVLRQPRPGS

[17] = target: T4, Probable nicotinate-nucleotide adenylyltransferase (Staphylococcus aureus (strain N315), UniProt P65502); format: functional, Staphylococcus aureus subsp. aureus N315;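 for IC50 Mean: confirmatory dose-response retesting of NadD inhibitor hits first found in an ultra-high-throughput screen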
[18] = target: T4, Probable nicotinate-nucleotide adenylyltransferase; format: functional, Staphylococcus aureus subsp. aureus N315; conditions: read-out: IC50_Mean
[19] = HEp-2 cell cytotoxicity, dose response, cytotoxicity control for RSV inhibitor project, HTS (AID 2410); format: functional; conditions: human respiratory syncytial virus

Nuclear receptor subfamily 5 group A member 2, sequence (O00482 whole entry): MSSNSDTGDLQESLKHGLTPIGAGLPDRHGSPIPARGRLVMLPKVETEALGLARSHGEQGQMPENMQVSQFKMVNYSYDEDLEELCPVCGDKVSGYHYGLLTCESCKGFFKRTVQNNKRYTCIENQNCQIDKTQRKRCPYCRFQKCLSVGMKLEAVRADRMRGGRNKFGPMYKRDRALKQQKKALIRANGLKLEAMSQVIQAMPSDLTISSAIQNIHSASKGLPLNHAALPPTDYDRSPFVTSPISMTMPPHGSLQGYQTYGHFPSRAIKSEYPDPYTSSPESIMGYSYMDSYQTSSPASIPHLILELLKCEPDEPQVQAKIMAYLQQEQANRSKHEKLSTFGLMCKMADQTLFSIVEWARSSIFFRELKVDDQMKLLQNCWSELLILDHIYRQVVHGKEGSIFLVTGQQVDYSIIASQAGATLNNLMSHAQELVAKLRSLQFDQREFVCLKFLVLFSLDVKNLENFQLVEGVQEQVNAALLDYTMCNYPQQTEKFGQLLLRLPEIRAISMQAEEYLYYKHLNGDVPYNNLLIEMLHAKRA
Steroidogenic factor 1, sequence (Q13285 whole entry): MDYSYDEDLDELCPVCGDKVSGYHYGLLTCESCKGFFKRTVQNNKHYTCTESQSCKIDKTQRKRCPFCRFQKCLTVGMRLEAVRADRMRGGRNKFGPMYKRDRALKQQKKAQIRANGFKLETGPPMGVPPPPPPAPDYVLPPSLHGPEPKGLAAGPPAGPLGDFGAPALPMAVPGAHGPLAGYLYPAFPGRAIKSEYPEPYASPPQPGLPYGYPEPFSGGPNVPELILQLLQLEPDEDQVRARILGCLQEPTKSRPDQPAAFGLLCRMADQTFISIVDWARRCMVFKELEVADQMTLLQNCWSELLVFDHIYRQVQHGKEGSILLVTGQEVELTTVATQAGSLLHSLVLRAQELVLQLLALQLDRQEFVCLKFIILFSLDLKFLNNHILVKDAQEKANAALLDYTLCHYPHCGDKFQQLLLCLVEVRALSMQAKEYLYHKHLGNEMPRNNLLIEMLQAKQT
T4 sequence (P65502 whole entry): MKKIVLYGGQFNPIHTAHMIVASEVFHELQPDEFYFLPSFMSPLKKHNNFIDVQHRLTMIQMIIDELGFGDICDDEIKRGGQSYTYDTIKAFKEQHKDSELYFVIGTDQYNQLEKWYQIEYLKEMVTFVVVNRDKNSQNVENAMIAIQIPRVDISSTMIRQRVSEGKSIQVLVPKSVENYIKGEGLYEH
Glucose-6-phosphate 1-dehydrogenase, sequence (P11413 whole entry): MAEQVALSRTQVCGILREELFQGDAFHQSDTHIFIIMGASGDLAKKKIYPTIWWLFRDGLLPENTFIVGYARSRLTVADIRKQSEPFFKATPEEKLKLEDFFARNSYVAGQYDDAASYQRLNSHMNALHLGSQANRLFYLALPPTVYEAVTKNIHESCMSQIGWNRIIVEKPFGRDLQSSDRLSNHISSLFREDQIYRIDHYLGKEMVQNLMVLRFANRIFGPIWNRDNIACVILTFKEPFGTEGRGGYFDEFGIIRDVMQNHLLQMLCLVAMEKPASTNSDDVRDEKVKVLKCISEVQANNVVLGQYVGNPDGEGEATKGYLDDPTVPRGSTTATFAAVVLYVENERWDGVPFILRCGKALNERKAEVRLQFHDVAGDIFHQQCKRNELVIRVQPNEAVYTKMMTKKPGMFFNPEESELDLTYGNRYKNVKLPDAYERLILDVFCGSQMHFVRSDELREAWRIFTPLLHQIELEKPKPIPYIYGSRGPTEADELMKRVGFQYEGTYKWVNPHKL
Photoreceptor-specific nuclear receptor, sequence (Q9Y5X4 whole entry, the tested form may be a part): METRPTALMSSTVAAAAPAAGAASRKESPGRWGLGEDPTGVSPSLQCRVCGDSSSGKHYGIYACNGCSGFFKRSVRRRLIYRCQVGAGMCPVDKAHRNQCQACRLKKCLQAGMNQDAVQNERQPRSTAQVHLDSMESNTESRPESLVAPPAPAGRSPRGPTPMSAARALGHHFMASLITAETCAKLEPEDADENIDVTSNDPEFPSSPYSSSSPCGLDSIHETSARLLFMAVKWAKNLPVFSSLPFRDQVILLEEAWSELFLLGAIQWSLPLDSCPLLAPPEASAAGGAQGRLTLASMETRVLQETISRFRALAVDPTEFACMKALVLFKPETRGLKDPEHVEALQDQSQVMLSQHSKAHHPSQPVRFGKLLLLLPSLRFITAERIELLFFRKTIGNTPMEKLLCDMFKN

Compound: Cc1cc(Br)ccc1NC(=O)CNC(=O)Cn1ncc(Cl)c(Cl)c1=O
- IC50 [1]: 1.84 µM (active)
- AC50 [2]: 4.54 µM (active)
- AC50 [3]: 7.47 µM (active)
- AC50 [4]: 4.51 µM (active)
- AC50 [5]: 3.92 µM (active)
- AC50 [6]: > 52 µM (inactive)
- AC50 [7]: 5.41 µM (active)

Compound: CCCN(CC(=O)Nc1ccccc1C)CC(=O)Nc1ccc(Br)cc1F
- IC50 [8]: 35.1 µM (inactive)
- IC50 (Steroidogenic factor 1): 1.33 µM (active)
- IC50 [9]: 10.6 µM (inactive)

Compound: COC(=O)C1CCN(C(c2ccc(OC)c(OC)c2)c2sc3nc(C)nn3c2O)CC1 (configuration not stated)
- AC50 [10]: 17.4 µM (active)

Compound: CCC(CO)N1C(C)=CC(=Cc2sc3ccccc3[n+]2Cc2ccccc2)C=C1C (configuration not stated)
- IC50 [11]: > 80 µM (inactive)
- AC50 (INS1): 0.613 µM (active)
- EC50 [12]: 1.19 µM (active)
- AC50 [10]: 2.73 µM (active)
- EC50 [13]: 0.775 µM (active)

Compound: COc1cc(OC)cc(-c2oc3cccnc3c2C#CCCO)c1
- IC50 [8]: 27.3 µM (inactive)
- IC50 (Steroidogenic factor 1): 0.443 µM (active)
- IC50 [9]: 1.87 µM (active)

Compound: N#Cc1c(-c2ccccc2)cc(-c2ccccc2)nc1SCCC(=O)O
- IC50 [14]: 12.7 µM (inactive)
- AC50 [15]: 1.6 µM (active)

Compound: Cc1noc(C)c1NC(=O)N(C)C[C@@H]1Oc2c(NC(=O)c3ccncc3)cccc2C(=O)N([C@H](C)CO)C[C@@H]1C
- IC50 [16]: 7.66 µM (active)
- IC50 [17]: 27.3 µM (active)
- IC50 [18]: 38.7 µM (active)

Compound: COC(=O)c1ccc(NC(=O)COc2cccc(-n3cnnn3)c2)cc1
- IC50 [8]: 35.9 µM (inactive)
- IC50 (Steroidogenic factor 1): 35.9 µM (inactive)
- IC50 [9]: 35.9 µM (inactive)

Compound: O=S(=O)(c1cccc(Cl)c1)N1CCCC(c2nc(O)c3nnn(Cc4ccc5c(c4)OCCO5)c3n2)C1 (configuration not stated)
- IC50 (cells): 10.3 µM (active)
- CC50 [19]: 11.3 µM (active)
- IC50 [17]: 9.91 µM (active)
- IC50 [18]: 30.5 µM (active)

Compound: CCOC(=O)c1c(SCCN2CCCC2)n(-c2ccccc2)c(=S)n(-c2ccccc2)c1=O
- IC50 [1]: 1.09 µM (active)

Source: ChEMBL document CHEMBL1201862, “PubChem BioAssay data set” (2004)
